In patent publication US9708334B2, “Substituted 2,4,5,6-tetrahydropyrrolo[3,4-c]pyrazole and 4,5,6,7-tetrahydro-2H-pyrazolo[4,3-c]pyridine compounds as GlyT1 inhibitors” (DART NEUROSCIENCE (CAYMAN) LTD., priority 2014, dated 2017):

Target: T1, GlyT1 (Homo sapiens, UniProt P48067)
T1 construct: expressed in transfected cells
T1 sequence (P48067 1-706): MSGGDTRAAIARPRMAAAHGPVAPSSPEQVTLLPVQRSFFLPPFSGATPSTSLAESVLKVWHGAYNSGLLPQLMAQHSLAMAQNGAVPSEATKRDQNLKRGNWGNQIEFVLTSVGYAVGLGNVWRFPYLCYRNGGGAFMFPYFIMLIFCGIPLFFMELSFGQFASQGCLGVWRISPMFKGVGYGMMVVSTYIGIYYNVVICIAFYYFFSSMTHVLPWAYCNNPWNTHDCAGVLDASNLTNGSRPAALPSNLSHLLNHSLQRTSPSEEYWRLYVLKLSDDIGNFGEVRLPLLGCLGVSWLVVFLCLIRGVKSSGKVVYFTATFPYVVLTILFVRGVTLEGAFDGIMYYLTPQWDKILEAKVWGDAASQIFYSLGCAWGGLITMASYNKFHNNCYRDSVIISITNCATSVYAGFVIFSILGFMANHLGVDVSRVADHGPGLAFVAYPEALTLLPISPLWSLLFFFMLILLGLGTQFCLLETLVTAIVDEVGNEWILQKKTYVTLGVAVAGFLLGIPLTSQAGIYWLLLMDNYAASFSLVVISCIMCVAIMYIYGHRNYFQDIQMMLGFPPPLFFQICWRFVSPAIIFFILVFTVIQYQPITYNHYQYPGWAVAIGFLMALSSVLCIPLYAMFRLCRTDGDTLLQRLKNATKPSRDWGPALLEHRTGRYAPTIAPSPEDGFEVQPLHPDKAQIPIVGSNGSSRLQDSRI
Assay: Glycine Transporter 1 (GlyT1) uptake assay, scintillation proximity assay of [14C]-glycine uptake
Format: cell-based
Conditions: SPA, four parameter logistic fit, read-out: GlyT1 (pIC50) (converted)
Procedure, shortened: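 [14C]-glycine uptake read by scintillation proximity on a plate counter. IC50 from four-parameter logistic fit of dose-response data.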

| IC50 [µM] | SMILES |
| --- | --- |
| 0.1 to 1 | Cc1c2c(nn1-c1ccccc1)CCN(C(=O)c1cc(S(C)(=O)=O)ccc1N1CCCCC1)C2 [Example 167, 1-(4-Methanesulfonyl-2-{3-methyl-2-phenyl-2H 4H 5H 6H 7H-pyrazolo[4,3-c]pyridine-5-carbonyl}phenyl)piperidine] |
| < 0.1 | CC(Oc1ccc(C#N)c(Cl)c1C(=O)N1CCc2c(cnn2-c2ccc(F)cn2)C1)C(F)(F)F (stereo not shown) [Example 210, 2-Chloro-3-[1-(5-fluoropyridin-2-yl)-1H 4H 5H 6H 7H-pyrazolo[4,3-c]pyridine-5-carbonyl]-4-[(1 1 1-trifluoropropan-2-yl)oxy]benzonitrile] |
| 0.1 to 1 | COc1c(C#N)ccc(C2CCC2)c1C(=O)N1CCc2nn(-c3ccccc3)cc2C1 [Example 488, 4-Cyclobutyl-2-methoxy-3-{2-phenyl-2H 4H 5H 6H 7H-pyrazolo[4,3-c]pyridine-5-carbonyl}benzonitrile] |
| > 10 | CC(Oc1ccc(C(=O)N2CCC2)c(Cl)c1C(=O)N1CCc2nn(-c3ccc(F)cc3)cc2C1)C(F)(F)F (stereo not shown) [Example 6, 1-{2-Chloro-3-[2-(4-fluorophenyl)-2H 4H 5H 6H 7H-pyrazolo[4,3-c]pyridine-5-carbonyl]-4-[(1 1 1-trifluoropropan-2-yl)oxy]benzoyl}azetidine] |
| < 0.1 | COc1c(C#N)ccc(O[C@@H](C)C(F)(F)F)c1C(=O)N1Cc2cn(-c3ccc(C#N)cc3)nc2C1 [Example 283, 3-[2-(4-Cyanophenyl)-2H 4H 5H 6H-pyrrolo[3,4-c]pyrazole-5-carbonyl]-2-methoxy-4-{[(2S)-1 1 1-trifluoropropan-2-yl]oxy}benzonitrile] |
| < 0.1 | CC(C)(C)COc1ccc(S(C)(=O)=O)cc1C(=O)N1Cc2cn(-c3ccc(F)cc3)nc2C1 [Example 341, 5-[2-(2 2-Dimethylpropoxy)-5-methanesulfonylbenzoyl]-2-(4-fluorophenyl)-2H 4H 5H 6H-pyrrolo[3,4-c]pyrazole] |
| < 0.1 | CS(=O)(=O)c1ccc(N2CCC(F)(F)CC2)c(C(=O)N2Cc3cn(-c4cccc(C(F)(F)F)c4)nc3C2)c1 [Example 55, 4 4-Difluoro-1-(4-methanesulfonyl-2-{2-[3-(trifluoromethyl)phenyl]-2H 4H 5H 6H-pyrrolo[3,4-e]pyrazole-5-carbonyl}phenyl)piperidine] |
| < 0.1 | Cc1cccc(-n2cc3c(n2)CN(C(=O)c2cc(S(C)(=O)=O)ccc2OCC(F)(F)F)C3)c1F [Example 106, 2-(2-Fluoro-3-methylphenyl)-5-[5-methanesulfonyl-2-(2 2 2-trifluoroethoxy)benzoyl]-2H 4H 5H 6H-pyrrolo[3,4-c]pyrazole] |
| 0.1 to 1 | COc1ccc(-n2cc3c(n2)CCN(C(=O)c2c(OC(C)C(F)(F)F)ccc(C#N)c2OC)C3)cc1 (stereo not shown) [Example 207, 2-Methoxy-3-[2-(4-methoxyphenyl)-2H 4H 5H 6H 7H-pyrazolo[4,3-c]pyridine-5-carbonyl]-4-[(1 1 1-trifluoropropan-2-yl)oxy]benzonitrile] |
| 0.1 to 1 | C[C@H](Oc1ccc(C#N)cc1C(=O)N1Cc2cn(CC(C)(C)F)nc2C1)C(F)(F)F [Example 378, 3-[2-(2-Fluoro-2-methylpropyl)-2H 4H 5H 6H-pyrrolo[3,4-c]pyrazole-5-carbonyl]-4-{[(2S)-1 1 1-trifluoropropan-2-yl]oxy}benzonitrile] |
| < 0.1 | CC(C)(C)COc1ccc(S(C)(=O)=O)cc1C(=O)N1Cc2cn(-c3ccc(F)c(C(F)F)c3)nc2C1 [Example 77, 2-[3-(Difluoromethyl)-4-fluorophenyl]-5-[2-(2 2-dimethylpropoxy)-5-methanesulfonylbenzoyl]-2H 4H 5H 6H-pyrrolo[3,4-e]pyrazole] |
| < 0.1 | C[C@H](Oc1ccc(C#N)c(Cl)c1C(=O)N1Cc2cn(-c3cncc(F)c3)nc2C1)C(F)(F)F [Example 252, 2-Chloro-3-[2-(5-fluoropyridin-3-yl)-2H 4H 5H 6H-pyrrolo[3,4-c]pyrazole-5-carbonyl]-4-{[(2S)-1 1 1-trifluoropropan-2-yl]oxy}benzonitrile] |
| < 0.1 | COc1c(S(C)(=O)=O)ccc(O[C@@H](C)C(F)(F)F)c1C(=O)N1Cc2cn(-c3ccc(F)cc3)nc2C1 [Example 300, 2-(4-Fluorophenyl)-5-(3-methanesulfonyl-2-methoxy-6-{[(2S)-1 1 1-trifluoropropan-2-yl]oxy}benzoyl)-2H 4H 5H 6H-pyrrolo[3,4-c]pyrazole] |
| < 0.1 | Cc1cccc(-n2cc3c(n2)CN(C(=O)c2cc(S(C)(=O)=O)ccc2N2CCC(F)(F)CC2)C3)c1 [Example 110, 4 4-Difluoro-1-{4-methanesulfonyl-2-[2-(3-methylphenyl)-2H 4H 5H 6H-pyrrolo[3,4-c]pyrazole-5-carbonyl]phenyl}piperidine] |
| 0.1 to 1 | COc1c(C#N)ccc(C2(F)CCC2)c1C(=O)N1Cc2cn(-c3ccc(F)cc3)nc2C1 [Example 26, 4-(1-Fluorocyclobutyl)-3-[2-(4-fluorophenyl)-2H 4H 5H 6H-pyrrolo[3,4-c]pyrazole-5-carbonyl]-2-methoxybenzonitrile] |
| < 0.1 | Cc1cc(-n2cc3c(n2)CN(C(=O)c2cc(S(C)(=O)=O)ccc2-c2cccc(F)c2)C3)ccn1 [Example 109, 4-{5-[2-(3-Fluorophenyl)-5-methanesulfonylbenzoyl]-2H 4H 5H 6H-pyrrolo[3,4-c]pyrazol-2-yl}-2-methylpyridine] |
| 0.1 to 1 | CC(C)Oc1ccc(C#N)cc1C(=O)N1Cc2cn(CC3CCOC3)nc2C1 (stereo not shown) [Example 420, 3-[2-(Oxolan-3-ylmethyl)-2H 4H 5H 6H-pyrrolo[3,4-c]pyrazole-5-carbonyl]-4-(propan-2-yloxy)benzonitrile] |
| 0.1 to 1 | CC(Oc1ccc(C#N)c(Cl)c1C(=O)N1CCc2nn(-c3ccc(F)cc3)cc2C1)C(F)(F)F (stereo not shown) [Example 177, 2-Chloro-3-[2-(4-fluorophenyl)-2H 4H 5H 6H 7H-pyrazolo[4,3-c]pyridine-5-carbonyl]-4-[(1 1 1-trifluoropropan-2-yl)oxy]benzonitrile] |
| 1 to 10 | CC(Oc1ccc(C(=O)N(C)C)c(Cl)c1C(=O)N1CCc2nn(-c3ccc(F)cc3)cc2C1)C(F)(F)F (stereo not shown) [Example 200, 2-Chloro-3-[2-(4-fluorophenyl)-2H 4H 5H 6H 7H-pyrazolo[4,3-c]pyridine-5-carbonyl]-N N-dimethyl-4-[(1 1 1-trifluoropropan-2-yl)oxy]benzamide] |
| 0.1 to 1 | COc1c(C#N)ccc(C2(F)CCOCC2)c1C(=O)N1Cc2cn(-c3cccc(C)n3)nc2C1 [Example 21, 4-(4-Fluorooxan-4-yl)-2-methoxy-3-[2-(6-methylpyridin-2-yl)-2H 4H 5H 6H-pyrrolo[3,4-e]pyrazole-5-carbonyl]benzonitrile] |
| < 0.1 | COc1c(C#N)ccc(OC(C)C(F)(F)F)c1C(=O)N1CCc2c(cnn2-c2cccnc2)C1 (stereo not shown) [Example 218, 2-Methoxy-3-[1-(pyridin-3-yl)-1H 4H 5H 6H 7H-pyrazolo[4,3-c]pyridine-5-carbonyl]-4-[(1 1 1-trifluoropropan-2-yl)oxy]benzonitrile] |
| 0.1 to 1 | Cc1c(F)cncc1-n1cc2c(n1)CN(C(=O)c1cc(C#N)ccc1O[C@@H](C)C(F)(F)F)C2 [Example 352, 3-[2-(5-Fluoro-4-methylpyridin-3-yl)-2H 4H 5H 6H-pyrrolo[3,4-c]pyrazole-5-carbonyl]-4-{[(2 S)-1 1 1-trifluoropropan-2-yl]oxy}benzonitrile] |
| > 10 | CC(C)(Oc1ccc(S(C)(=O)=O)cc1C(=O)N1Cc2cn(-c3ccc(F)cc3)nc2C1)C(F)(F)F [Example 477, 2-(4-Fluorophenyl)-5-{5-methanesulfonyl-2-[(1 1 1-trifluoro-2-methylpropan-2-yl)oxy]benzoyl}-2H 4H 5H 6H-pyrrolo[3,4-c]pyrazole] |
| 0.1 to 1 | CCS(=O)(=O)c1ccc(OC(C)C)c(C(=O)N2Cc3cn(-c4ccc(F)cc4F)nc3C2)c1 [Example 81, 2-(2 4-Difluorophenyl)-5-[5-(ethanesulfonyl)-2-(propan-2-yloxy)benzoyl]-2H 4H 5H 6H-pyrrolo[3,4-c]pyrazole] |
| 0.1 to 1 | C[C@H](Oc1ccc(C#N)cc1C(=O)N1Cc2cn(CC3CCCC3)nc2C1)C(F)(F)F [Example 414, 3-[2-(Cyclopentylmethyl)-2H 4H 5H 6H-pyrrolo[3,4-c]pyrazole-5-carbonyl]-4-{[(2S)-1 1 1-trifluoropropan-2-yl]oxy}benzonitrile] |
| 1 to 10 | CC1(COc2ccc(C#N)c(Cl)c2C(=O)N2CCc3nn(-c4ccccc4)cc3C2)COC1 [Example 506, 2-Chloro-4-[(3-methyloxetan-3-yl)methoxy]-3-{2-phenyl-2H 4H 5H 6H 7H-pyrazolo[4,3-c]pyridine-5-carbonyl}benzonitrile] |
| 0.1 to 1 | COc1c(C#N)ccc(C2(F)CCC2)c1C(=O)N1Cc2cn(-c3cccc(C)n3)nc2C1 [Example 20, 4-(1-Fluorocyclobutyl)-2-methoxy-3-[2-(6-methylpyridin-2-yl)-2H 4H 5H 6H-pyrrolo[3,4-c]pyrazole-5-carbonyl]benzonitrile] |
| 1 to 10 | CS(=O)(=O)c1ccc(OCC2CC2)c(C(=O)N2CCc3nn(-c4ccccc4)cc3C2)c1 [Example 500, 5-[2-(Cyclopropylmethoxy)-5-methanesulfonylbenzoyl]-2-phenyl-2H 4H 5H 6H 7H-pyrazolo[4,3-c]pyridine] |
